#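 Five concentrations, 48 hours, 96-well plates. Abbreviation: GI50, concentration required for 50% inhibition of growth.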 Calls of active or inactive are those of the source. Rule as the data show it: active = GI50 up to about 1.1 µM and inactive = higher.
# Key:
# Test in all cases: NCI tumour cell line growth inhibition, 48 h
# 786-0 = test system: 786-0
# A498 = test system: A498
# A549 = test system: A549
# DU-145 = test system: DU-145
# HCT-15 = test system: HCT-15
# HL-60 = test system: HL-60
# K562 = test system: K562
# LOX IMVI = test system: LOX IMVI
# MDA-N = test system: MDA-N
# MOLT-4 = test system: MOLT-4
# NCI-H522 = test system: NCI-H522
# NCI/ADR-RES = test system: NCI/ADR-RES
# OVCAR-3 = test system: OVCAR-3
# RPMI-8226 = test system: RPMI-8226
# SF-268 = test system: SF-268
# SF-295 = test system: SF-295
# SF-539 = test system: SF-539
# SR = test system: SR
# TK-10 = test system: TK-10
# UACC-62 = test system: UACC-62
smiles,measurement,setting,value
Cc1ccc(S(=O)(=O)N/N=C/C2(c3ccccc3)c3ccccc3-c3ccccc32)cc1,GI50,786-0,12.1 µM (inactive)
same,GI50,A498,18.6 µM (inactive)
same,GI50,A549,5.74 µM (inactive)
same,GI50,DU-145,12.1 µM (inactive)
same,GI50,HCT-15,9.27 µM
same,GI50,HL-60,> 100 µM (inactive)
same,GI50,K562,4.56 µM (inactive)
same,GI50,LOX IMVI,12.7 µM (inactive)
same,GI50,MDA-N,4.28 µM (inactive)
same,GI50,MOLT-4,7.18 µM (inactive)
same,GI50,NCI-H522,13 µM (inactive)
same,GI50,NCI/ADR-RES,7.94 µM (inactive)
same,GI50,OVCAR-3,7.71 µM (inactive)
same,GI50,RPMI-8226,7.45 µM (inactive)
same,GI50,SF-268,14 µM (inactive)
same,GI50,SF-295,3.21 µM (inactive)
same,GI50,SF-539,15.8 µM (inactive)
same,GI50,SR,7.45 µM (inactive)
same,GI50,TK-10,20.9 µM (inactive)
same,GI50,UACC-62,11.2 µM (inactive)

# — ChEMBL document CHEMBL1201862, “PubChem BioAssay data set” (2004)
